Experimental data: ChEMBL document CHEMBL1201862, “PubChem BioAssay data set” (2004)
Activity calls are given as the source filed them.

Assays:
[1] = biological target: Coagulation factor XII (Homo sapiens, UniProt P00748); assay type: functional;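 also: activated factor XIIa alpha cleaving a fluorogenic AMC peptide substrate; inhibitor potency from loss of enzyme activity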
[2] = biological target: DNA damage-inducible transcript 3 protein (Mus musculus, UniProt P35639); assay type: functional, Cricetulus griseus
[3] = inhibitors of firefly luciferase expression or activity, dose response, H4 neuroglioma cells, luminescence (AID 1990); assay type: functional, cell-based
[4] = Luminescence Cell-Based Dose HTS Response to Identify Inhibitors of 5'UTR Stem-Loop Driven Prion Protein mRNA Translation in H4-C Neuroglioblastoma Cells. [Related pubchem assays (depositor defined):AID1814, AID1827]; assay type: functional
[5] = Luminescence Cell-Based Dose Response HTS to Identify Inhibitors of 5'UTR Stem-Loop Driven Prion Protein mRNA Translation in H4 Neuroglioblastoma Cells. [Related pubchem assays: 1827 (Project Summary), 1813 (Primary HTS)]; assay type: functional
[6] = inhibitors of SNCA 5'UTR-driven reporter translation, confirmation, H4 neuroglioma cells, luminescence (AID 1988); assay type: functional, cell-based
[7] = Luminescence Cell-Based Dose Retest to Confirm Activators of 5'UTR Stem-Loop Driven Alpha-Synuclein mRNA Translation in H4 Neuroglioblastoma Cells. [Related pubchem assays (depositor defined):AID1813, AID1829]; assay type: functional
[8] = Luminescence Cell-Based Dose Confirmation HTS to Identify Inhibitors of 5'UTR Stem-Loop Driven Alpha-Synuclein mRNA Translation in H4 Neuroglioblastoma Cells. [Related pubchem assays: 1827 (Project Summary), 1813 (Primary HTS)]; assay type: functional
[9] = Luminescence Cell-Based Dose Response HTS to Identify Activators of 5'UTR Stem-Loop Driven Prion Protein mRNA Translation in H4-C Neuroglioblastoma Cells. [Related pubchem assays: 1829 (Project Summary), 1814 (Primary HTS)]; assay type: functional
[10] = Luminescence Cell-Based Dose Response HTS to Identify Inhibitors of Luciferase Translation or Activity in H4-C Neuroglioblastoma Cells. [Related pubchem assays: 1813 (Primary HTS), 1827 (Project Summary)]; assay type: functional
[11] = Luminescence Cell-Based Dose Response HTS to Identify Activators of Luciferase Translation or Activity in H4-C Neuroglioblastoma Cells. [Related pubchem assays: 1829 (Project Summary), 1814 (Primary HTS)]; assay type: functional
[12] = biological target: T1, Peroxisome proliferator-activated receptor gamma (Homo sapiens, UniProt P37231); test: PPARg ligand-binding domain binders, dose response, PPARg partial agonist project, biochemical, fluorescence polarization, PolarScreen (AID 504453)
T1 sequence (P37231 whole entry): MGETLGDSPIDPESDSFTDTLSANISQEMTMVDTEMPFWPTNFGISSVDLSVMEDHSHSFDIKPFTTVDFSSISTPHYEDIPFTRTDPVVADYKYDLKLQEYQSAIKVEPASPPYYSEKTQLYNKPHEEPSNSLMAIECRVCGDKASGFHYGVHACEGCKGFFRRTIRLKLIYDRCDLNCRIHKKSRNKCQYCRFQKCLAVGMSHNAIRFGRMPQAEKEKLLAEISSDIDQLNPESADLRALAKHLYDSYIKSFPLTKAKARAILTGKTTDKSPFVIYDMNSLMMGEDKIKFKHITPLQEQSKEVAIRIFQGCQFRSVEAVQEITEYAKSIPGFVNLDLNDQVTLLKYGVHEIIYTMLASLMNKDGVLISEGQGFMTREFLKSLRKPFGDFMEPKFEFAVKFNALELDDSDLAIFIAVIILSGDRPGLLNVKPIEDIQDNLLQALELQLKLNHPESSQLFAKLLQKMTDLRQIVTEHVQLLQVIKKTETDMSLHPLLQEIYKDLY

[13] = biological target: T1, Peroxisome proliferator-activated receptor gamma; test: PPARg partial agonists, dose response, cell-based, luminescence, assay provider (AID 504447); assay type: functional
[14] = biological target: T1, Peroxisome proliferator-activated receptor gamma; test: PPARg ligand-binding domain binders, dose response, PPARg partial agonist project, biochemical, TR-FRET, LanthaScreen (AID 504446)
[15] = Vero E6 cell cytotoxicity, dose response, cytotoxicity control for non-replicating M. tuberculosis project, secondary assay (AID 492998); assay type: functional, VeroE6; conditions: Vero C1008
[16] = cells; assay type: functional
[17] = biological target: T2, DNA repair protein RAD52 homolog (Homo sapiens, UniProt P43351); assay type: functional, biochemical
T2 sequence (P43351 whole entry): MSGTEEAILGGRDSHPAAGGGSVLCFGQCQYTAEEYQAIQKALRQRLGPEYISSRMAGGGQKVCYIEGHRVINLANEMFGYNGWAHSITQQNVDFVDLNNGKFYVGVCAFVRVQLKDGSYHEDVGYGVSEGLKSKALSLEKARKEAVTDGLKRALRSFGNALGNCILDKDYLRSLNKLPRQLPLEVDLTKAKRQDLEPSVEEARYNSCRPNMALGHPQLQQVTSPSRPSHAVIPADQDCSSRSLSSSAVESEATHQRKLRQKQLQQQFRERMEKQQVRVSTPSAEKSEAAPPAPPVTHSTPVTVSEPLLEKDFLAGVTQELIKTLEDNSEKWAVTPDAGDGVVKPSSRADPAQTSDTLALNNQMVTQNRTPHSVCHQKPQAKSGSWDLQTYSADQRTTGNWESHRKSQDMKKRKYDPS

[18] = THP-1 cell cytotoxicity, dose response, cytotoxicity control for non-replicating M. tuberculosis project (AID 489025); assay type: functional
[19] = biological target: T3, Heat shock factor protein 1 (Mus musculus, UniProt P38532); test: inhibition of MG132-induced HSE-luciferase signal, confirmation, cell-based, NIH3T3, luminescence, dose retest (AID 2382); assay type: functional;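 also: NIH3T3 fibroblasts with HSF1-driven luciferase reporter stressed by proteasome inhibitor MG132; luminescence from HSF1-driven luciferase expression after 8 hours of MG132 stress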
T3 sequence (P38532 whole entry): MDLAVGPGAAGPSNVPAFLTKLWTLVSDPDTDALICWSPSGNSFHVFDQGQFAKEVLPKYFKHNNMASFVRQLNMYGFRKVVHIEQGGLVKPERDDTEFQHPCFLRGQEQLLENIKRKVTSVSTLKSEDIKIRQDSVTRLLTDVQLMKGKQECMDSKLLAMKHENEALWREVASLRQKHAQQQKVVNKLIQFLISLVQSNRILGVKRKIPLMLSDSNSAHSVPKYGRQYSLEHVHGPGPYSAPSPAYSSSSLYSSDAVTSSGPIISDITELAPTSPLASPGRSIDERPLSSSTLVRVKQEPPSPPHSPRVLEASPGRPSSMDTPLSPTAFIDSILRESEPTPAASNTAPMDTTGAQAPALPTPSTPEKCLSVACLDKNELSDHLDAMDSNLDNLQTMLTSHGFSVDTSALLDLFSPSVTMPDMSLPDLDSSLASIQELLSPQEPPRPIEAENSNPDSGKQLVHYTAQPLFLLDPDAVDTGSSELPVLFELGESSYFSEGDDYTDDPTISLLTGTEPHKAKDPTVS

[20] = HepG2 cell cytotoxicity, dose response, cytotoxicity control for non-replicating M. tuberculosis project (AID 489018); assay type: functional; conditions: Mycobacterium tuberculosis
[21] = biological target: Voltage-dependent T-type calcium channel subunit alpha-1H (Homo sapiens, UniProt O95180); test: Cav3.2 T-type channel inhibitors, synthesized analogs, SAR follow-up, cell-based, synthetic library set 2, HEK293 HH8, Fluo-4 (AID 493023); assay type: functional
[22] = biological target: Ion channel NompC (Danio rerio, UniProt Q7T1G6); test: Fluorescence counterscreen assay for TRPML3 agonists: dose response cell-based high-throughput screening assay to identify agonists of the transient receptor potential channel N1 (TRPN1). [Related pubchem assays: 1526, 1424, 1448 ]; assay type: functional
[23] = biological target: Type-1 angiotensin II receptor (Homo sapiens, UniProt P30556); test: AT1 receptor agonists, dose response, selectivity assay for APJ receptor agonist project, cell-based, uHTS hits (AID 488865); assay type: functional;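 also: beta-arrestin recruitment to AT1 measured by enzyme fragment complementation luminescence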
[24] = biological target: T4, High affinity choline transporter 1 (Homo sapiens, UniProt Q9GZV3); test: CHT inhibitors, dose response, cell-based, 5-point CRC, membrane potential dye (AID 504840); assay type: functional
T4 sequence (Q9GZV3 whole entry): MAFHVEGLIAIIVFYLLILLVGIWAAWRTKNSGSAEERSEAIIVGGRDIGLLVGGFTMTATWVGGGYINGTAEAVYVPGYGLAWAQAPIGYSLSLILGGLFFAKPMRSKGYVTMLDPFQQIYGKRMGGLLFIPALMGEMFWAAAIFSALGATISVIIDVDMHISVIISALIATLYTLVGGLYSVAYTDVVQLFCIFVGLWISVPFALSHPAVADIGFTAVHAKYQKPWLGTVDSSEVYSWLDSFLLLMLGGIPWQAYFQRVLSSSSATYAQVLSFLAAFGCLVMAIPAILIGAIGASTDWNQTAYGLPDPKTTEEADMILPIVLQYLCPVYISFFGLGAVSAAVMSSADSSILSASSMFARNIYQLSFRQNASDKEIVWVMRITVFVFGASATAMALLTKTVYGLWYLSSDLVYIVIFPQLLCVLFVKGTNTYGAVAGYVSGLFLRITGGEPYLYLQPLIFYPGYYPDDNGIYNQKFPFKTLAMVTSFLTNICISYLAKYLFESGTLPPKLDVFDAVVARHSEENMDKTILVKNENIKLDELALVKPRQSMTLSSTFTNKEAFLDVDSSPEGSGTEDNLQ

[25] = microbe, parasite or virus in culture; assay type: functional; conditions: Mycobacterium tuberculosis
[26] = system: INS1; test: beta cell apoptosis inhibitors, cytokine rescue, dose response, luminescence, retest (AID 449756); assay type: functional, cell-based; conditions: Rattus norvegicus;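 also: cell death triggered by IL-1 beta plus TNF-alpha plus IFN-gamma mixture; protective hits raise ATP signal compared with cytokine alone wells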
[27] = biological target: T3, Heat shock factor protein 1; test: HSF1 potentiators in luciferase reporter cells, confirmation, cell-based, NIH3T3, luminescence, dose retest (AID 435004); assay type: functional;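 also: stress induced by proteasome inhibitor MG132 added 30 min after compound; luciferase reporter driven by HSF1 response element in NIH3T3 cells; actives raise luminescence as potentiators of the MG132 stress response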
[28] = biological target: T5, Mucolipin-3 (Homo sapiens, UniProt Q8TDD5); test: Dose response cell-based high-throughput screening assay for agonists of the transient receptor potential channel ML3 (TRPML3). [Related pubchem assays: 1526, 1424, 1448 ]; assay type: functional
T5 sequence (Q8TDD5 whole entry): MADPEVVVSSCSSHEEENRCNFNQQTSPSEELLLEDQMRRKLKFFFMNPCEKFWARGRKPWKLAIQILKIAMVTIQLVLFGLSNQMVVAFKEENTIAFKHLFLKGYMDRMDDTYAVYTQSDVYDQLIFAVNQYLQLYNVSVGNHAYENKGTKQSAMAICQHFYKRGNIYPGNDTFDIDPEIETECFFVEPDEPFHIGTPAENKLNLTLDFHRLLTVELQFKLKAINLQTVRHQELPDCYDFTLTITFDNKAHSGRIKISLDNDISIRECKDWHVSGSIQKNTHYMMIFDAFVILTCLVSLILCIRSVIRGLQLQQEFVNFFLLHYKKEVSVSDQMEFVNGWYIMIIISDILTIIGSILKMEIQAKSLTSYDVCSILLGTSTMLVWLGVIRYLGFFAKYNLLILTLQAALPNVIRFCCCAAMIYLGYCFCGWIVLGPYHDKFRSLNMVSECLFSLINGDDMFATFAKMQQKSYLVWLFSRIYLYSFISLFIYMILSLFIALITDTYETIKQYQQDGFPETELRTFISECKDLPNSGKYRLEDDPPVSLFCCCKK

[29] = biological target: Heat shock protein HSP 90-alpha (Homo sapiens, UniProt P07900); assay type: functional, organism-based
[30] = biological target: Paired box protein Pax-8 (Homo sapiens, UniProt Q06710); test: inhibitors of PAX8-driven TPO luciferase reporter, dose response, RMG-I cells, cherry-pick (AID 687027); assay type: functional, cell-based;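 also: luciferase reporter driven by Pax8 target thyroperoxidase promoter measured by SteadyGlo luminescence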
[31] = Fluorescence-based cell-based high throughput dose response assay for inhibitors of the interaction of nucleotide-binding oligomerization domain containing 2 (NOD2) and the receptor-interacting serine-threonine kinase 2 (RIPK2).; assay type: functional; conditions: Homo sapiens
[32] = biological target: Beta Lactamase (Pseudomonas aeruginosa, UniProt Q932Y6); test: beta-lactamase reporter inhibitor potency, dose response, artefact control for NOD2-RIPK2 interaction inhibitor project, BLA reporter cells, FRET fluorescence (AID 651552); assay type: functional, cell-based
[33] = biological target: T6, Runt-related transcription factor 1/Core-binding factor subunit beta (Homo sapiens, UniProt Q01196+Q13951); test: inhibitors of RUNX1 Runt–CBFb-SMMHC binding, primary screen, biochemical, FRET, Cerulean-Runt, Venus-CBFb-SMMHC, uHTS (AID 1434); assay type: protein assay;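 also: partner is the CBFb-SMMHC leukemia fusion protein rather than wild-type CBFb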
[34] = biological target: Induced myeloid leukemia cell differentiation protein Mcl-1 (Homo sapiens, UniProt Q07820); assay type: functional
[35] = biological target: T6, Runt-related transcription factor 1/Core-binding factor subunit beta; test: inhibitors of RUNX1 Runt–CBFb-SMMHC binding, biochemical, TR-FRET (AID 1438); assay type: protein assay

T6 sequence (Q01196 whole entry, the tested form may be a part): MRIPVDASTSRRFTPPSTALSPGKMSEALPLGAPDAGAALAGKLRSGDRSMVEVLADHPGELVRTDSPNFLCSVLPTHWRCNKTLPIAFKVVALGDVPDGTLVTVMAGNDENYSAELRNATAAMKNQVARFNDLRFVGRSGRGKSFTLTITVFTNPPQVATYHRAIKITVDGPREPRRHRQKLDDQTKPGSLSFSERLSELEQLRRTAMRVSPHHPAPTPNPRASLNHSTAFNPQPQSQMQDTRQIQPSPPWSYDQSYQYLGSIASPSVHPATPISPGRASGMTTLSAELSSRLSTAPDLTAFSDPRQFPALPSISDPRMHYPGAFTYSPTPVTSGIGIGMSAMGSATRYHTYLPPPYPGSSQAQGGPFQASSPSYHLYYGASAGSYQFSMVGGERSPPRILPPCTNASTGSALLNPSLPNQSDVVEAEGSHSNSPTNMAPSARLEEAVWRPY
T6 sequence (Q13951 whole entry, the tested form may be a part): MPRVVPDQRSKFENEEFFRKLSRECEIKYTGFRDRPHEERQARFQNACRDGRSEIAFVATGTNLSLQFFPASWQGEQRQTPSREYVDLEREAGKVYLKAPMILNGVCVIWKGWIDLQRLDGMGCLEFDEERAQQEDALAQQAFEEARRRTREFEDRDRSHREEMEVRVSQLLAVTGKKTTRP
Chain of Paired box protein Pax-8 (Q06710 whole entry, the tested form may be a part): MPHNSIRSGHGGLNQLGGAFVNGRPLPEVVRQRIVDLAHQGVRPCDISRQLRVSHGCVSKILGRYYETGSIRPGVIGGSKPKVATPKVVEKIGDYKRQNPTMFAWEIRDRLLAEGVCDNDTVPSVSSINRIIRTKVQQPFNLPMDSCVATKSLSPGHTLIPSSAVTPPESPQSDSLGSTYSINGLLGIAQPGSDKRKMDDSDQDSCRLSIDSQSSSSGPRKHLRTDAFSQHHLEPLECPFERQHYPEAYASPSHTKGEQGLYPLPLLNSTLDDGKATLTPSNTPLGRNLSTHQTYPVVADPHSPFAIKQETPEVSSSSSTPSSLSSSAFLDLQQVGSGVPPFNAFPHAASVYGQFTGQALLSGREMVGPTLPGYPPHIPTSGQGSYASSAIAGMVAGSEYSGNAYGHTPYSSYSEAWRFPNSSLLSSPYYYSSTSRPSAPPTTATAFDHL
Chain of Voltage-dependent T-type calcium channel subunit alpha-1H (O95180 whole entry): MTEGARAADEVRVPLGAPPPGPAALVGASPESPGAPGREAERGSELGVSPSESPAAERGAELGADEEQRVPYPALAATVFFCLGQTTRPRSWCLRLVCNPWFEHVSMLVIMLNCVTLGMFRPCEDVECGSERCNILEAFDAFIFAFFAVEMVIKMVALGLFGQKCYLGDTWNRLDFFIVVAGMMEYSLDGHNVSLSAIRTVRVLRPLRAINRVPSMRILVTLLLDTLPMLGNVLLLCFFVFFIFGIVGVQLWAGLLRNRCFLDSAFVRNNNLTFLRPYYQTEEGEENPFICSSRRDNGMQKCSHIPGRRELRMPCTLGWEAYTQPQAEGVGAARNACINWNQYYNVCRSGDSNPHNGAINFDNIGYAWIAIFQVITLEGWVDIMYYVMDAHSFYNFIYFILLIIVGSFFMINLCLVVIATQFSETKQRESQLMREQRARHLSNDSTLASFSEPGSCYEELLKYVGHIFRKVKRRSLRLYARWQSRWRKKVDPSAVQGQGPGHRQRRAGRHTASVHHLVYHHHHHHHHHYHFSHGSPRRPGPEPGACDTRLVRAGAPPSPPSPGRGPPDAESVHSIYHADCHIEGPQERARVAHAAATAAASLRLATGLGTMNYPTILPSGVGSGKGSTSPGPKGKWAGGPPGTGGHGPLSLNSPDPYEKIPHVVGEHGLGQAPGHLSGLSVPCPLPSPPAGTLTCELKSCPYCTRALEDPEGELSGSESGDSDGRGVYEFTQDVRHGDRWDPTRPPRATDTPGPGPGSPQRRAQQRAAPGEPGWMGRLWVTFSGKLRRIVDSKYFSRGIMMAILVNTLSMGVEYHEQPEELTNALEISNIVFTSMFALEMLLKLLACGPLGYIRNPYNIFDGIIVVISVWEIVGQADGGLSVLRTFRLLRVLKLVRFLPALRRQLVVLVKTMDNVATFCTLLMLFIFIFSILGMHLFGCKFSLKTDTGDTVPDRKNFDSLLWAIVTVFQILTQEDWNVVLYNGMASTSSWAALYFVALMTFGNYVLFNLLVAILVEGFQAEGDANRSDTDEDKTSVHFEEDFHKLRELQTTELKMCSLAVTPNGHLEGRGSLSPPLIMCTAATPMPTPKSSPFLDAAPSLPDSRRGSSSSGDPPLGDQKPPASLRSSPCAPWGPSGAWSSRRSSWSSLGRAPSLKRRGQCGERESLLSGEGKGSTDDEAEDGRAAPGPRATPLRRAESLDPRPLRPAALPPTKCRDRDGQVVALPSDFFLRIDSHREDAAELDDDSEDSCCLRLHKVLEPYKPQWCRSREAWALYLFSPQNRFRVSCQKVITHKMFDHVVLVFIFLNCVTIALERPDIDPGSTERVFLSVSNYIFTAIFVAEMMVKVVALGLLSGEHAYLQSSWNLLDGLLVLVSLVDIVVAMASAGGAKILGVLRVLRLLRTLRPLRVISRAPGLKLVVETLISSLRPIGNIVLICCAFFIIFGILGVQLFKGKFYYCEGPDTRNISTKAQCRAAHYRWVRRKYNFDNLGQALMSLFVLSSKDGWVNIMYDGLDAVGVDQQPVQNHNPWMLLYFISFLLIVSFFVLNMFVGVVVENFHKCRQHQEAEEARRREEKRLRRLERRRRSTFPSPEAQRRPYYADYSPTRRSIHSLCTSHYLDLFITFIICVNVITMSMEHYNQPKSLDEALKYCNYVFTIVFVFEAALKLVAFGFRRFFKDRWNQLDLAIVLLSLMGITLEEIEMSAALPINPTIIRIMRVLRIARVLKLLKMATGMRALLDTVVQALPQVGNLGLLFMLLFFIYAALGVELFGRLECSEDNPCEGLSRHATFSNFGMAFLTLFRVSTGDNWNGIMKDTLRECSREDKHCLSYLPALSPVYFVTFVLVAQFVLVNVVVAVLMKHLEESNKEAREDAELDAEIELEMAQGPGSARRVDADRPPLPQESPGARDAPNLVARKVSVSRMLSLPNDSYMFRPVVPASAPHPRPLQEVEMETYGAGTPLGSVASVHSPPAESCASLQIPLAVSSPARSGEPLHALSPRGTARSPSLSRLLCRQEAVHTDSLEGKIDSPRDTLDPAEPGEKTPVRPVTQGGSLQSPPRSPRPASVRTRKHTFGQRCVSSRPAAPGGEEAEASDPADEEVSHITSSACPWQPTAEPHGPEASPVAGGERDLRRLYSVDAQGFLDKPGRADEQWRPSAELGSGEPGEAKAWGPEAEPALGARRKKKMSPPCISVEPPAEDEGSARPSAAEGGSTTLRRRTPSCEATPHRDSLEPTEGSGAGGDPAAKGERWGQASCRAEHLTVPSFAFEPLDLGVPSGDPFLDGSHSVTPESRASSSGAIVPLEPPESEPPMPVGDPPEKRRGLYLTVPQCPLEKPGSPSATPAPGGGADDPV
Chain of Induced myeloid leukemia cell differentiation protein Mcl-1 (Q07820 whole entry): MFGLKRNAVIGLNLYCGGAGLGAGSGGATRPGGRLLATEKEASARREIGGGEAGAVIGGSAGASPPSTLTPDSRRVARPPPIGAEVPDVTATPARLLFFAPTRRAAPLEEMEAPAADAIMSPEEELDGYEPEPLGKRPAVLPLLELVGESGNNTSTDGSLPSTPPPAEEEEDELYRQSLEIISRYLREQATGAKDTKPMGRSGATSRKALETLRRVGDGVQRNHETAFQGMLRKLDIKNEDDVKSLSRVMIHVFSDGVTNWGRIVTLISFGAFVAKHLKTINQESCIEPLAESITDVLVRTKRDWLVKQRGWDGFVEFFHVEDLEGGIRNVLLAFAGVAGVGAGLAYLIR
Chain of Type-1 angiotensin II receptor (P30556 whole entry, the tested form may be a part): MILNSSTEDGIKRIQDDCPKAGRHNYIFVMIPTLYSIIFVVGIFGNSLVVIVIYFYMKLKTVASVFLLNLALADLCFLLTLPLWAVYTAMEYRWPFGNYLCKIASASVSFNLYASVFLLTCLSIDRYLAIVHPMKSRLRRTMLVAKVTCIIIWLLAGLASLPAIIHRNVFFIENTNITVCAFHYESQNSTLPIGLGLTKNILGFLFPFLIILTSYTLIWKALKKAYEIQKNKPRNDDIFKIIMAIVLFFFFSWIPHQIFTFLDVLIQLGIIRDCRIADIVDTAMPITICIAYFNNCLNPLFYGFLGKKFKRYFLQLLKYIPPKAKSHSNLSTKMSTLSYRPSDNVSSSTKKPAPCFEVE
Chain of Beta Lactamase (Q932Y6 whole entry, the tested form may be a part): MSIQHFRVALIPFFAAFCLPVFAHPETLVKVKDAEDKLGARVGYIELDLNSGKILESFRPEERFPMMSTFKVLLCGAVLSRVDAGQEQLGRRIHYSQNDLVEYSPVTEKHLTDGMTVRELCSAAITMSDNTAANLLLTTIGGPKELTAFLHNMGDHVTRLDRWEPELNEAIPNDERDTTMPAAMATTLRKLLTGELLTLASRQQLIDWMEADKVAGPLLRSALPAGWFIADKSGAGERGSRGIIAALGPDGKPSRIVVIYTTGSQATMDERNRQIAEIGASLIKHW
Chain of DNA damage-inducible transcript 3 protein (P35639 whole entry): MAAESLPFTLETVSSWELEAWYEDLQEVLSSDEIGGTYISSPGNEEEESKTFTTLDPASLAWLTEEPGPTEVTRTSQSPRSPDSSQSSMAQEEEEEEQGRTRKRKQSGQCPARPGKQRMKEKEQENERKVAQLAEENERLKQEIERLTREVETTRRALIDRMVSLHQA

CCCCCCCCCCCC(=O)N1CC(=O)NC(=O)C1
IC50 [1]: > 50 µM (inactive)

O=C(c1ccc(Cl)cc1)N1CCC(O)(CSc2ccc(Cl)cc2Cl)CC1
Absolute IC50 (CHOP) [2]: 10 µM

Cc1cc(C)cc(Nc2nc3ccc(C)cc3n3cnnc23)c1
EC50 [3]: > 120 µM (not active) | EC50 [4]: > 195 µM (inactive) | EC50 [5]: > 120 µM (not active) | EC50 [6]: 2.82 µM (active) | EC50 [7]: 16.6 µM (inconclusive) | EC50 [8]: 16.6 µM (active) | EC50 [9]: > 195 µM (inconclusive) | EC50 [10]: 20.5 µM (active) | EC50 [11]: 20.5 µM (inconclusive)

CCOc1ccc2nc(N3C(=O)C(O)=C(C(=O)c4ccco4)C3c3ccco3)sc2c1 (stereo not given)
IC50 [12]: 3 µM (active) | EC50 [13]: 1.2 µM (active) | IC50 [14]: 8.2 µM (inactive)

CCN(CC)CCCN(C(=O)c1ccco1)c1nc(-c2ccc(C)cc2)cs1
CC50 [15]: > 20 µM (active) | IC50 [16]: 44.2 µM (active) | AC50 [17]: 20.7 µM (active) | CC50 [18]: 38.2 µM (active) | EC50 [19]: > 195 µM (not active) | CC50 [20]: > 20 µM (active)

O=C(COc1ccc(F)c(Cl)c1)N[C@@H]1CCCN(Cc2ccccc2)C1
EC50 [21]: 10 µM (active)

CC1=CC(=O)C(C(C)C)=C/C1=N/OS(=O)(=O)c1ccccc1
EC50 [22]: > 29.9 µM (not active) | EC50 [23]: > 100 µM (inactive) | IC50 [24]: 12 µM (active) | CC50 [25]: 9.69 µM (active) | AC50 [26]: 1.06 µM (active) | EC50 [27]: 4.19 µM (active) | EC50 [28]: > 29.9 µM (not active) | AC50 [29]: 3.61 µM (active) | AC50 [30]: 6.97 µM (active) | IC50 [31]: 7.38 µM (active) | IC50 [32]: 49.8 µM (inactive)

Nc1c(C(=O)NCCN2CCOCC2)c2nc3ccccc3nc2n1Cc1ccco1
IC50 [33]: 1.19 µM (active) | IC50 [34]: 6.49 µM (not active) | IC50 [35]: > 100 µM (inactive)
